The values that follow come from article PMC4904371, “Luteolin inhibits GABAA receptors in HEK cells and brain slices” (Scientific Reports, 2016).

For assay [1], the target named is T1, α1β2 GABAAR (Rattus norvegicus, UniProt P62813+P63138).
T1 construct: gene Gabra1; full-length subunits in pcDNA3.1, co-transfected in HEK293T cells; GFP as separate marker; pentamer
The experiment in a line: whole-cell patch clamp, inhibition of GABA-evoked current. Format: cell-based. On the technique in general: In patch-clamp work, channel activity is measured electrically.

Assay [2] has as its target T2, α5β2 GABAAR (Rattus norvegicus, UniProt P19969+P63138).
T2 construct: gene Gabra5; full-length subunits in pcDNA3.1, co-transfected in HEK293T cells; GFP as separate marker; pentamer
The assay is described as above. It is filed as cell-based.

SMILES strings stand for the structures.

T2 sequence (P19969 26-464): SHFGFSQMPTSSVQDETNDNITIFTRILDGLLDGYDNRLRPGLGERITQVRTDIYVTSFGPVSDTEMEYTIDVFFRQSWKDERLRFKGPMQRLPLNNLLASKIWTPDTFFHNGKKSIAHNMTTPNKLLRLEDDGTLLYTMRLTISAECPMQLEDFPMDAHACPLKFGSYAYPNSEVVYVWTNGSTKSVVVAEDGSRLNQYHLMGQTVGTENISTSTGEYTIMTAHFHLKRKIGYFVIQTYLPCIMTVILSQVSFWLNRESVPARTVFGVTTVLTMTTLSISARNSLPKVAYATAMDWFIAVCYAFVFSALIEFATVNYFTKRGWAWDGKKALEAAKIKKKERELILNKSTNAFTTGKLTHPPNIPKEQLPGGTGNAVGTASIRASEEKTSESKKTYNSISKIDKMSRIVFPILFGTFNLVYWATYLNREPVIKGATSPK
T2 sequence (P63138 26-474): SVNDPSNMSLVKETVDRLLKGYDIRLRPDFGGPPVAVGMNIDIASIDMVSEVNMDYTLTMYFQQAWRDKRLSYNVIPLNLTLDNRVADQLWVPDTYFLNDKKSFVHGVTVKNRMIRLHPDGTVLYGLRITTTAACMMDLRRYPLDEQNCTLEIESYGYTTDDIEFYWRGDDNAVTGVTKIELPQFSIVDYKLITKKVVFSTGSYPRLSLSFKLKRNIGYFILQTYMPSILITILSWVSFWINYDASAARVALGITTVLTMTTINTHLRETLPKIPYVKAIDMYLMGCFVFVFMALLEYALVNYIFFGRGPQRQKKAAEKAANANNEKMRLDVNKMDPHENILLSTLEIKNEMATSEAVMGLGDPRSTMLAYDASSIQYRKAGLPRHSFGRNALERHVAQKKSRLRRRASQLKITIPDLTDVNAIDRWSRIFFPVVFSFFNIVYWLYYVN
T1 sequence (P62813 28-455): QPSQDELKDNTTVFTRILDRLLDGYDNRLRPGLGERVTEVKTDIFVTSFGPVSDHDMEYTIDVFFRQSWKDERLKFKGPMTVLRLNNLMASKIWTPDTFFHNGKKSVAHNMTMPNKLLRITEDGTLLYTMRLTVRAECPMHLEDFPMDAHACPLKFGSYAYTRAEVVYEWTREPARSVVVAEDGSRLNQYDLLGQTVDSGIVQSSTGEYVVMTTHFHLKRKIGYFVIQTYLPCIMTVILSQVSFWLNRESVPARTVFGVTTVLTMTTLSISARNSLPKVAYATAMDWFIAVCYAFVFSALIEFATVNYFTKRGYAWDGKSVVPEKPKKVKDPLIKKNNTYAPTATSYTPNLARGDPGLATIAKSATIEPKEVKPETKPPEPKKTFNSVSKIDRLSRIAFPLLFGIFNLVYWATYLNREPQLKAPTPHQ
T1 sequence (P63138 26-474): as the sequence (P63138 26-474) above

As for `O=c1cc(-c2ccc(O)c(O)c2)oc2cc(O)cc(O)c12` [luteolin, 2-(3,4-Dihydroxyphenyl)-5,7-dihydroxy-4-chromenone], the IC50 worked out at 10.8 ± 4.46 µM in assay [1] and 25.4 ± 9 µM in assay [2].

For orientation: IC50 means the concentration that gives 50% inhibition. A lower IC50 goes with higher potency.
